Tests used:
Type in all cases: in vivo
[1] = tested on: Western Corn Rootworm (Diabrotica virgifera virgifera, DIABVI, WCR); assay: Bioassay 8: western corn rootworm, soil drench, corn root protection; details: AI alone, DIABVI, soil drench, 13 days
Procedure: Corn seeds were planted in steam pasteurized soil filled greenhouse pots. Western corn rootworm Diabrotica virgifera virgifera eggs supplied from the Corteva Agriscience in Johnston, IA US, were suspended in a 0.08% agar solution added into the soil. Stock solutions of F1 and active ingredients were prepared at a concentration of either 250 or 500 ugai/10 mL for F1 and active ingredients at the ratios of (F1:AI) 1:0.004; 1:0.01; 1:0.02; 1:0.04; 1:0.08; 1:0.1; 1:0.15; 1:0.2; 1:0.4; 1:2; or 1:4, using a 1:1 solution of acetone:water as a diluent. A soil application of solutions were applied as a 10 mL drench over the soil. Plants were grown in the greenhouse for 13 days at 25 C after which the roots were removed from the soil, washed, and measured to determine the length of the median nodal roots. The measured lengths were compared to the infested and un-infested untreated checks to determine the mean percent control offered to protect the corn roots.

[2] = tested on: Fall Armyworm (Spodoptera frugiperda, LAPHFR, FAW); assay: Bioassay 7: fall armyworm, artificial diet, 96 well plate
Procedure: (§1) The test solutions were tested against CEW, FAW, BAW, and SBL using the following procedure: an artificial lepidopteran diet (Multispecies Lepidopteran Diet, Southland Products) was distributed in 96 well plate. Twenty μL of test solution was pipetted onto a cell in the bioassay plate. […] Each treatment was replicated 5 times for each species. Approximately five first instar CEW, FAW, BAW, or SBL larva were placed on top of the diet in each cell and was contained with a clear perforated adhesive lid. Test trays were held at approximately 25° C. and ambient relative humidity prior to grading. After five days, the number of cells where all the larvae were dead were recorded as 100% and averaged across all replicates; then the percent control was measured using Abbott's correction formula (W. S. Abbott, J. Econ. Entomol. 18 (1925), pp. 265-267) as follows:
(§2) where X=No. of live larvae on solvent check and Y=No. of live larvae on treated diet. In Table 7 the “Expected % Control” was calculated using the method described in Colby S. R., Weeds, 1967, 15, 20-22. Bioassay 8: Western Corn Rootworm (Diabrotica virgifera virgifera, DIABVI, “WCR”)

[3] = tested on: Soybean Looper (Chrysodeixis includens, PSEPIN, SBL); assay: Bioassay 7: soybean looper, artificial diet, 96 well plate; details: CL; AI alone at 0.4 wt %
Procedure: as §1, §2

[4] = tested on: Corn Earworm (Helicoverpa zea, HELIZE, CEW); assay: Bioassay 7: corn earworm, artificial diet, 96 well plate; details: AI alone at 0.4 wt %
Procedure: as §1, §2

[5] = tested on: Beet Armyworm (Spodoptera exigua, LAPHEG, BAW); assay: Bioassay 7: beet armyworm, artificial diet, 96 well plate; details: AI alone at 0.4 wt %
Procedure: as §1, §2

[6] = tested on: Soybean Looper (Chrysodeixis includens, PSEPIN, SBL); assay: Bioassay 4: soybean looper, artificial diet, 128-cell tray; details: AI alone, 0.000004 wt %
Outline: (§3)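 Test solutions (0.0000004–0.04% w/v, i.e. 0.00005–5 μg/cm² on diet) were pipetted onto artificial lepidopteran diet and one 2nd-instar larva was placed per cell, 8 replicates per species, held at ~26° C. Live larvae were counted after 5 days; percent control used Abbott's correction against a solvent check.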

[7] = tested on: Fall Armyworm (Spodoptera frugiperda, LAPHFR, FAW); assay: Bioassay 4: fall armyworm, artificial diet, 128-cell tray; details: AI alone
Outline: as §3

[8] = tested on: Corn Earworm (Helicoverpa zea, HELIZE, CEW); assay: Bioassay 4: corn earworm, artificial diet, 128-cell tray; details: AI alone
Outline: as §3

[9] = tested on: Brown Planthopper (Nilaparvata lugens, NILALU, BPH); assay: Bioassay 6: brown planthopper, sprayed rice seedlings; details: AI alone, AI Rate 0.049 g/ha, 6 days
Procedure: At these rates, F1 and the individual active ingredients were tested at a ratio of 1:1. […] F1 and triflumezopyrim were tested at a ratio of 16:1. Test solutions were prepared containing F1, the individual active ingredients, and mixtures of F1 with each of the active ingredients. Test solutions were prepared by weighing 5 mg of each test chemistry (either alone or in combination depending on the treatment) into a 25 mL glass vial. Next, 1 mL of acetone was added to each vial to dissolve the test chemistries, followed by 19 mL of water with 0.125% Tween 20 adjuvant. This test solution represented the 50 g/ha treatment, which was then serially diluted four-fold to create the three lower rates of 12.5, 3.125, and 0.78 g/ha. Triflumezopyrim was prepared in a similar manner, but two additional serial dilutions were conducted to create solutions representing 6 rates of 12.5, 3.125, 0.78, 0.19, 0.049, and 0.012 g/ha. The higher two doses were discarded, and the four lower doses were used for testing. Each rate was replicated four times, and solvent blanks were used as control treatments.
Five (5) rice seedlings (10-12 days old) planted in 3-inch pots were used as test plants. Rice seedlings were grown in soil and the soil was covered with a 2% agar solution. The test solutions were applied to test plants using a Devries laboratory research sprayer, set to spray at 200 liters per hectare (L/ha) using a TeeJet hollow cone nozzle. Following application, the rice seedlings were dried for 1 hour, after which a single clear plastic tube (2 inches in diameter×12 inches in height) was placed over the seedlings in each pot. The tube was pushed down into the agar to create a sealed test chamber. The agar prevented insects from hiding in the soil and made adult collection and grading easier. Ten to fifteen (10-15) 5th instar BPH nymphs were transferred to each test chamber using a vacuum aspirator. Immediately following BPH infestation, the test chamber was covered with a piece of grade 90 cheesecloth and secured with a rubber band, sealing the test chamber. The test chambers were held at 25° C. for 6 days, after which the total number of live insects was counted in each test chamber. Percent control was measured using Abbott's correction formula (W. S. Abbott, J. Econ. Entomol. 18 (1925), pp. 265-267) as follows:
where X=No. of live insects on solvent check and Y=No. of live insects in treated chambers. In Table B6 the “Expected % Control” was calculated using the method described in Colby S. R., Weeds, 1967, 15, 20-22. Bioassay 7: Corn Earworm (Helicoverpa zea, HELIZE, “CEW”), Fall Armyworm (Spodoptera frugiperda, LAPHFR, “FAW”), Beet Armyworm (Spodoptera exigua, LAPHEG, “BAW”),and Soybean Looper (Chrysodeixis includens, PSEPIN, “SBL”).

[10] = tested on: Western Flower Thrips (Frankliniella occidentalis, FRANOC, WFT); assay: Bioassay 3: western flower thrips, cotton leaf disc dip; details: 3 days
Procedure: Stock solutions of F1 and various active ingredients were prepared initially at a concentration of 0.1 mg/mL using acetone as a diluent. Stock solutions were prepared with F1 as well as for each of the active ingredients individually. Test solutions were prepared from the stock solutions. Test solutions were prepared containing F1, the individual active ingredients, and mixtures of F1 with each of the active ingredients. The test solutions for F1 and the individual active ingredients were prepared by adding 500 μL of stock solution to a 25 mL glass vial, then adding 500 μL of acetone, followed by the addition of 9 mL water with 0.025% Tween® 20 to create a 0.0005% (w/v) solution. The test solutions containing mixtures of F1, and the individual active ingredients were prepared by adding 500 μL of the active ingredient stock solution to a 25 mL glass vial, followed by 500 μL of the F1 stock solution, then by the addition of 9 mL water with 0.025% Tween® 20 to create a test solution containing 0.0005% (w/v) F1 and 0.0005% (w/v) of the active ingredient. Each test solution was serially diluted to create desired doses of test solutions (0.0005% (w/v), 0.000125% (w/v), 0.00003125% (w/v), 0.0000078% (w/v), and 0.00000195% (w/v)).
The test solutions were tested against WFT using the following procedure: Leaf discs (2.7 cm in diameter) were cut from the true leaves of cotton plants. Leaf discs were dipped into the test solutions and shaken to ensure complete coverage of the leaf disc and then placed in Millipore® PetriSlides containing a filter paper disc. Treated leaf discs were air dried for approximately 1 hour. Each leaf disc was infested with 5 WFT (9-10-day old nymphs) by placement on each leaf disc, and the PetriSlides were capped to prevent escape. Each treatment was replicated three times and the test treatments were held at approximately 26° C. and ambient relative humidity (RH) prior to grading. Reference discs (solvent check) were treated with the diluent only. Evaluation was conducted by counting the number of live WFT under magnification 3 days after treatment. Percent control was measured using Abbott's correction formula (W. S. Abbott, J. Econ. Entomol. 18 (1925), pp. 265-267) as follows:
where X=No. of live nymphs on solvent check leaf discs and Y=No. of live nymphs on treated leaf discs. In Table B3 the “Expected % Control” was calculated using the method described in Colby S. R., Weeds, 1967, 15, 20-22. Bioassay 4: Corn Earworm (Helicoverpa zea, HELIZE, “CEW”), Fall Armyworm (Spodoptera frugiperda, LAPHFR, “FAW”), and Soybean Looper (Chrysodeixis includens, PSEPIN, “SBL”).

`CC1(C)[C@H](C(=O)O[C@H](C#N)c2cccc(Oc3ccccc3)c2)[C@@H]1C=C(Br)Br` [Deltamethrin] was tested, and the “Average % Control AI” value ([1]; UgActive AI 1) was 17.0% and the “Average % Control AI” value ([2]; AI alone at 0.004 wt %) was 0.0%.

Inpyrfluxam was tested, and the “Average % Control AI” value ([1]; UgActive AI 1) was 0.0%, the “Average % Control AI” value ([2]; AI alone at 0.4 wt %) was 0.0% and the “Average % Control AI” value [3] was 0.0%. For the same compound, the “Average % Control AI” value [4] was 12.5%.

For `OC(Cc1ccccc1Cl)(Cn1nc[nH]c1=S)C1(Cl)CC1` (centres unmarked) [Prothioconazole], the “Average % Control AI” value ([1]; UgActive AI 20) was 0.0% and the “Average % Control AI” value [4] was 0.0%.

In the case of `Cn1cc(C(=O)Nc2ccccc2C2CC2C2CC2)c(C(F)F)n1` (centres unmarked) [Sedaxane], the “Average % Control AI” value ([1]; UgActive AI 10) is reported as 0.0%, the “Average % Control AI” value ([2]; AI alone at 0.4 wt %) is reported as 0.0% and the “Average % Control AI” value [3] is reported as 0.0%. The “Average % Control AI” value [4] was 0.0% and the “Average % Control AI” value [5] was 0.0%.

With Spinetoram the “Average % Control AI” value [6] was 25.0%, the “Average % Control AI” value ([7]; 0.000004 wt %) was 0.0% and the “Average % Control AI” value ([8]; 0.000004 wt %) was 0.0%. The “Average % Control AI” value ([8]; 0.00004 wt %) was 25.0% and the “Average % Control AI” value [9] was 2.5%.

With `CC1(C)CCC(=Cc2ccc(Cl)cc2)C1(O)Cn1cncn1` (centres unmarked) [Titriconazole] the “Average % Control AI” value ([1]; UgActive AI 100) was 0.0%, the “Average % Control AI” value [4] was 0.0% and the “Average % Control AI” value [5] was 0.0%.

`CCN(C(=O)CCS(C)(=O)=O)c1sc(-c2cccnc2)nc1Cl` [AI-1, N-(4-chloro-2-(pyridin-3-yl)thiazol-5-yl)-N-ethyl-3-(methylsulfonyl)propanamide] was tested, and the “Average % Control AI” value ([10]; AI alone at 1:1 rate to F1 0.78 (10^-6 Wt %)) was 9.5%, the “Average % Control AI” value [6] was 12.5% and the “Average % Control AI” value ([7]; 0.000004 wt %) was 0.0%. The “Average % Control AI” value ([8]; 0.000004 wt %) was 0.0%, the “Average % Control AI” value ([8]; 0.00004 wt %) was 0.0% and the “Average % Control AI” value [9] was 0.0%.

In the case of Abamectin, the “Average % Control AI” value ([10]; AI alone at 1:1 rate to F1 3.125 (10^-6 Wt %)) is reported as 31.0%, the “Average % Control AI” value ([7]; 0.00004 wt %) is reported as 0.0% and the “Average % Control AI” value ([8]; 0.000004 wt %) is reported as 0.0%. For the same compound, the “Average % Control AI” value ([8]; 0.00004 wt %) was 0.0% and the “Average % Control AI” value [9] was 40.7%.

Thiabendazole was tested, and the “Average % Control AI” value ([1]; UgActive AI 50) was 16.8%, the “Average % Control AI” value [4] was 0.0% and the “Average % Control AI” value [5] was 0.0%.

Reference: patent publication US20260182575A1, “MOLECULES HAVING PESTICIDAL UTILITY AND INTERMEDIATES AND PROCESSES RELATED THERETO” (CORTEVA AGRISCIENCE LLC, priority 2022, published 2026)
